Results on four molecules are retold here after patent US8242159B2, “1,3-dihydro-5-isobenzofurancarbonitrile derivatives and pharmaceutical composition thereof for the treatment of premature ejaculation” (Dong-A Pharmaceutical. Co., Ltd, priority 2007, dated 2012).

The nature of data set [1]: Determination of half-lives of the compounds in rats (oral, plasma HPLC). The data set is classed as in vivo. The following applies: rat, male Sprague-Dawley rats, 10 mg/kg (text also says 5 mg/kg), 0.5% methylcellulose. The protocol:
The half-lives of present compounds were determined as follows. Each compound was administered orally to male Sprague-Dawley rats weighing approximately 270 g at a dose of 10 mg/kg. 5 mg/kg of each compound was suspended in 0.5% methyl-cellulose and then administered to rats. Blood samples were collected 0.017, 0.083, 0.25, 0.5, 1, 2, 3, 5, 7 and 24 hours after administration, and centrifuged at 1,000 rpm for 3 min to separate plasma. The concentration of each compound in plasma was determined using high performance liquid chromatography, which was performed with a mobile phase of 10 mM ammonium formate (pH 3.0) and acetonitrile (50:50), an […] column (21×100 mm, 3 μm) and a flow rate of 0.2 ml/min.

In data set [2] the test system is Sprague-Dawley (SD) rats. In words: Acute toxicity test, single dose, mortality. The data set is classed as in vivo, rat. Further details: unit not given here. The text has this:
The present derivatives and citalopram were individually administered orally and intra-venously to SD rats at a single dose.

The test system of data set [3] is Salmonella typhimurium TA98, 100, 1535, 1537, E. coli WP2 uvrA. The following applies: reported 'in the same test'; which test is not specified; cited from earlier work.
Data set [4] relates to Male Wistar rats. In words: p-PCA-induced ejaculation in anesthetized rats (ejaculation-delaying effect). Format: in vivo, rat. The following applies: for Ratio: Number of responding animals/total animal number: 50 mg/kg oral in 1% HPMC, p-PCA 5 mg/kg i.p. 80 min later, observed 30 min; for Latency: Time to display the ejaculatory response: 50 mg/kg oral, p-PCA 5 mg/kg i.p., mean ± standard deviation of responding rats. The method, boiled down:
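Male Wistar rats (240-260 g) received compound orally at 50 mg/kg in 1% HPMC, were anesthetized 60 min later, and 20 min after that were given p-PCA 5 mg/kg i.p. to induce ejaculation. Scored as rhythmic bulbocavernosus contraction plus semen discharge, with six or more animals per compound versus vehicle.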

For data set [5], the target named is T1, 5HT1A receptor (Homo sapiens, UniProt P08908).
T1 construct: expressed in transfected cells; host or cells: CHO cells
T1 sequence (P08908 1-422): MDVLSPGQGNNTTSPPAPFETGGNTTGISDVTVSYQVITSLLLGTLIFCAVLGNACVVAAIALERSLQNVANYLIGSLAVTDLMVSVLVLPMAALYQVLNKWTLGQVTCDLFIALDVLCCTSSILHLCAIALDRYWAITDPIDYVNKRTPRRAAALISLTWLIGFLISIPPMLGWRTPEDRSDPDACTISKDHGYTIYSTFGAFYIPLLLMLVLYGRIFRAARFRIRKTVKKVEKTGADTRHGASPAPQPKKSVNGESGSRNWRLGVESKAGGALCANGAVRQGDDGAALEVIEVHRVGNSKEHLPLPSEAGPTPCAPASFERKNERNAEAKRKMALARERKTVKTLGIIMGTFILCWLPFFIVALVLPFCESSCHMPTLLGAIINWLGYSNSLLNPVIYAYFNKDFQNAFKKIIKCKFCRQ
Nature of the data set: Radioligand competitive binding assay. The following applies: human-derived recombinant CHO cells. The protocol:
(§1) In addition, ligand binding to 5HT1A, 5-HT1B and 5-HT2C receptors and 5-HT transporter was evaluated with human-derived recombinant CHO cells, Wistar rat-derived cerebral cortical cells, human-derived recombinant CHO-K1 cells, and human-derived recombinant HEK-293 cells. Each cell line was dosed with 10^−5 μM to 10^4 μM of the compounds of Examples 2, 35, 40 and 45, and then incubated with a radio-labeled ligand for competitive binding. Ligands used were […], [^125I]Cyanopindolol, [^3H]Mesulergine and [^3H]Paroxetine, respectively. The competitive binding assay was carried out in 50 mM Tris-HCl buffer at 25° C. or 37° C., for 60 to 90 min.

Data set [6] addresses T2, 5-HT1B receptor (Rattus norvegicus, UniProt P28564).
T2 construct: Wistar rat-derived cerebral cortical cells; from tissue; host or cells: Wistar rat cerebral cortex
In words: Radioligand competitive binding assay, [125I]Cyanopindolol. The following applies: Wistar rat-derived cerebral cortical cells. As for the experimental part:
as §1

Data set [7] deals with T3, 5-HT2C receptor (Homo sapiens, UniProt P28335).
T3 construct: expressed in transfected cells; host or cells: CHO-K1 cells
T3 sequence (P28335 33-458): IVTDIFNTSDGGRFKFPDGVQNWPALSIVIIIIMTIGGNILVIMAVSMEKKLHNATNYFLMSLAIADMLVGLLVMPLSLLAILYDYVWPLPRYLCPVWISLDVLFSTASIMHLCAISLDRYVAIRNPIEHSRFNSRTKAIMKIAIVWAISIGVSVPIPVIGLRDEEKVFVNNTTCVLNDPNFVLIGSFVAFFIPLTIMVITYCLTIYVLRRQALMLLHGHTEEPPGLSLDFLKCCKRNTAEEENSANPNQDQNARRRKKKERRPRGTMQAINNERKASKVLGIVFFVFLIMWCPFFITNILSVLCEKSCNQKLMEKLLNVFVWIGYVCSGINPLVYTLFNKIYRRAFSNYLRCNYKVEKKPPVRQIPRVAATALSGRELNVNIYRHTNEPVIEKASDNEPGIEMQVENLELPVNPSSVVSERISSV
In words: Radioligand competitive binding assay, [3H]Mesulergine. The following applies: human-derived recombinant CHO-K1 cells. As for the experimental part: as §1

The target of data set [8] is T4, 5-HT transporter (Homo sapiens, UniProt P31645).
T4 construct: expressed in transfected cells; host or cells: HEK-293 cells
T4 sequence (P31645 whole entry): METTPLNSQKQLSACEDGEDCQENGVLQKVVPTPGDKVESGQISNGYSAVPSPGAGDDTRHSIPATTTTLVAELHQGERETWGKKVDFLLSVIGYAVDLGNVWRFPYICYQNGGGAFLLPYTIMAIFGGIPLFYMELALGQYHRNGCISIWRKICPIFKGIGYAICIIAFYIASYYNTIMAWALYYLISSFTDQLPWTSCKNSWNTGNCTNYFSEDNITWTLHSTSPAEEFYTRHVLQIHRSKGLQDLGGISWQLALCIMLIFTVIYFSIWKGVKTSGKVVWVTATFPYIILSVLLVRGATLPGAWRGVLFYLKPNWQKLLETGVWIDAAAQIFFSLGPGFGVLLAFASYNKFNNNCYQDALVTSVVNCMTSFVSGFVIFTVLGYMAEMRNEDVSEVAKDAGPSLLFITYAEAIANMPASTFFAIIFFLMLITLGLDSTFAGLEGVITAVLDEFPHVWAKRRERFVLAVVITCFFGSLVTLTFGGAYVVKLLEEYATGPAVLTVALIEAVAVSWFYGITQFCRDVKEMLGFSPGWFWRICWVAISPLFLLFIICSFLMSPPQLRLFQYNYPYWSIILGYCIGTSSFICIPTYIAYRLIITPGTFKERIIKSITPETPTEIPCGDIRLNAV
In words: Radioligand competitive binding assay, [3H]Paroxetine. The following applies: human-derived recombinant HEK-293 cells. As for the experimental part:
as §1

Data set [9] deals with cellular uptake of dopamine. Nature of the data set: Cellular reuptake assay, [3H]dopamine. Format: cell-based. The following applies: 10 min, CHO-1 cell line. As for the experimental part:
(§2) First, the effects of the present compounds on cellular uptake of dopamine, norepinephrine and serotonin were evaluated with human-derived CHO-1, MDCK and HEK-293 cell lines. Each cell line was dosed with 10^−5 μM to 10^4 μM of the compounds of Examples 2, 35, 40 and 45, and then incubated with [^3H]dopamine, [^3H]norepinephrine and [^3H]serotonin in buffer. After 10 min, the amount of each neurotransmitter taken up into cells was determined by counting radioactivity using a liquid scintillation counter (LSC).

Data set [10] has as its system cellular uptake of norepinephrine. In words: Cellular reuptake assay, [3H]norepinephrine. Format: cell-based. The following applies: 10 min, MDCK cell line. The protocol:
as §2

Data set [11] relates to cellular uptake of serotonin. Nature of the data set: Cellular reuptake assay, [3H]serotonin. The data set is classed as cell-based. The following applies: Homo sapiens, HEK293, 10 min, HEK-293 cell line. As for the experimental part: as §2
The target in data set [12] is hERG (human Ether-a-go-go Related Gene) (Homo sapiens, UniProt Q12809). Nature of the data set: Cardiotoxicity test, hERG assay (MDS Pharma). The text has this: To evaluate the safety of the present derivatives in comparison with control drug, conducted was hERG (human Ether-a-go-go Related Gene) assay which is a representative test of safety medical test. This test was requested to trial institute MDS Pharma., which conducted this test.
Chain of hERG (human Ether-a-go-go Related Gene) (Q12809 whole entry): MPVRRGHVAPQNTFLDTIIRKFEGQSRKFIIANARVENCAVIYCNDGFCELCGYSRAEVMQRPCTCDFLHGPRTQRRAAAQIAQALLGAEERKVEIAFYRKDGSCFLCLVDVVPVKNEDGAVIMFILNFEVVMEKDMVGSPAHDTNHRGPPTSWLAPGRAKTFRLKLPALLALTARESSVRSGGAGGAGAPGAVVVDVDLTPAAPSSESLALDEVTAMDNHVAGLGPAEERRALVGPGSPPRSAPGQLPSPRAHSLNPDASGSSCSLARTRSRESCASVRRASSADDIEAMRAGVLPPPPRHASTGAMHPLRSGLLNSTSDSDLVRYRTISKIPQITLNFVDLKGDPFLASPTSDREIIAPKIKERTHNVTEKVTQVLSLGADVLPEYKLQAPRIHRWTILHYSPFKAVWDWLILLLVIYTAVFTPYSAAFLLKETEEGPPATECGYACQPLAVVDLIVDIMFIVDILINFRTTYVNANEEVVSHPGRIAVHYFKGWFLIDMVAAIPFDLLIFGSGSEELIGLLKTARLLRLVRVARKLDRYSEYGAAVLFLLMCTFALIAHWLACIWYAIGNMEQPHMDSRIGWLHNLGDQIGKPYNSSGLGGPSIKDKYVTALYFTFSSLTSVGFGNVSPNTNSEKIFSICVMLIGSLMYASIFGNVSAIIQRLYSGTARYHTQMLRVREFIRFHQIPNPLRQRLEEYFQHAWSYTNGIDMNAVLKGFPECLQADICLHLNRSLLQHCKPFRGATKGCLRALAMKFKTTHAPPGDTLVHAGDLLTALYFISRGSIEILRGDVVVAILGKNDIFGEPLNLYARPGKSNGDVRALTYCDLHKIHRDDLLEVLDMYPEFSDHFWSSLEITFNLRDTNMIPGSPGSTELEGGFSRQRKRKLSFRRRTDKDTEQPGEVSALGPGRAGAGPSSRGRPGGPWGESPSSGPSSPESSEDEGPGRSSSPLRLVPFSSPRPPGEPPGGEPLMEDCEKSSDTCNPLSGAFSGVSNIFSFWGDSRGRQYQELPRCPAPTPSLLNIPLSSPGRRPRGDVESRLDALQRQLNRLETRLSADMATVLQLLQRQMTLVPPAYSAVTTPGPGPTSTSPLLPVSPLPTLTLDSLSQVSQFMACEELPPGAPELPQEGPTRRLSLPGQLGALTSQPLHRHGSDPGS
(In general: The hERG channel carries a current that helps repolarise heart muscle cells.)

The test system of data set [13] is Salmonella typhimurium TA98, 100, 1535, 1537, E. coli WP2 uvrA. In words: Mutagenicity test: Ames test. The following applies: 8, 40, 200, 1000, 2500, 5000 μg/plate, presence/absence of a metabolic activation system. The data set is classed as cell-based. As for the experimental part: (§3) To evaluate the safety of the present derivatives, mutagenicity test was conducted. Ames test and chromosome aberration test were conducted with the examples 2, 35, 40 and 45.
In general terms: The Ames test detects mutagens through reverse mutation in bacteria.

Data set [14] deals with CHL (Chinese Hamster Lung) cell. Nature of the data set: Mutagenicity test: chromosome aberration test. The data set is classed as cell-based. The following applies: 75, 150, 300 μg/ml with metabolic activation; 20, 40, 80 μg/ml without. The protocol: as §3

T2 sequence (P28564 whole entry): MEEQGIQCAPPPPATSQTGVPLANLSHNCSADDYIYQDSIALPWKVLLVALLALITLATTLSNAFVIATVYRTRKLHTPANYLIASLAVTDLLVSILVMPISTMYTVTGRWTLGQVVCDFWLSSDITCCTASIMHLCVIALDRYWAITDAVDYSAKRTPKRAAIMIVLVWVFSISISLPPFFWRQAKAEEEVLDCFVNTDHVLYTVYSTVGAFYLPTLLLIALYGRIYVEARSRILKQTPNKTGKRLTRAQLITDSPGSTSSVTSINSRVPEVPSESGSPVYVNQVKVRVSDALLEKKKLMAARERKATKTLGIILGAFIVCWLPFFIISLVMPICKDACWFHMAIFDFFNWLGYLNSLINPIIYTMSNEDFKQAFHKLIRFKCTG

Broadly, the Tmax is the time from dosing to the highest level. Usually half-life stands for how long it takes for the measured level to halve. In the case of `CN(C)CCCC1(c2ccc(F)cc2)OCc2cc(C#N)ccc21` (stereo not drawn) [Citalopram, reference compound], the Tmax in data set [1] turned out to be 19.8 min. The same molecule gave a half-life in data set [1] of 194 min. For the same molecule, the minimum lethal dose amounted to 30 in data set [2] (Intravenously, female SD rats); 30 in data set [2] (Intravenously, male SD rats); 650 in [2] (Orally, female SD rats); 650 in data set [2] (Orally, male SD rats). Moreover, the “mutagenicity test result as reported” value in data set [3] was “positive”.
The IC50 is the midpoint of a concentration-inhibition curve. Take `N#Cc1ccc2c(c1)COC2(CCCn1ccnc1)c1cccs1.O=C(O)C(=O)O` (stereo not drawn) [Ex. 45, 1-{3-(imidazole-1-yl)propyl}-1-(2-thienyl)-1,3-dihydro-5-isobenzofurancarbonitrile oxalate]: the “Ratio: Number of responding animals/total animal number” value in data set [4] is recorded as 2/9. In addition, in [4], the “Latency: Time to display the ejaculatory response” value is 676 ± 10 s. For the same molecule, the Tmax in data set [1] was 15 min. The half-life in [1] is 63.6 min. Besides, the IC50 was 898 µM in data set [5]; over 1000 µM in data set [6]; 8.88 µM in data set [7]; 0.0087 µM in data set [8]; 94.2 µM in data set [9]; 67.3 µM in data set [10]. Also, the IC50 in data set [11] stood at 0.465 µM; in data set [12], 10.6 µM. The minimum lethal dose came out at 50 in [2] (Intravenously, female SD rats); 50 in [2] (Intravenously, male SD rats); 1000 in data set [2] (Orally, female SD rats); 1000 in [2] (Orally, male SD rats). In addition, the Ames test result in data set [13] was “negative”. In addition, in data set [14], the “chromosome aberration test result” value is given as “negative”.
Consider `CN(C)CCCC1(c2ccc(N(C)C)cc2)OCc2cc(C#N)ccc21.O=C(O)C(=O)O` (stereo not drawn) [Ex. 35, 1-(4-dimethylaminophenyl)-1-{3-(dimethylamino)propyl}-1,3-dihydro-5-isobenzofurancarbonitrile oxalate], for which the “Ratio: Number of responding animals/total animal number” value in data set [4] is reported as 0/9. Also, the Tmax in data set [1] was found to be 15 min. This molecule also showed a half-life in data set [1] of 211 min. The IC50 in data set [5] is 1120 µM; in data set [6] it was over 1000 µM; in data set [7], 898 µM; in data set [8], 0.001 µM; in data set [9] it was 100 µM; in data set [10], 53.2 µM. Besides, the IC50 in [11] came out at 0.425 µM; in [12], 12.2 µM. Moreover, the minimum lethal dose is given as 50 in data set [2] (Intravenously, female SD rats); 50 in data set [2] (Intravenously, male SD rats); 1000 in data set [2] (Orally, female SD rats); 1000 in data set [2] (Orally, male SD rats). For the same molecule, the Ames test result in data set [13] was “negative”. Also, the “chromosome aberration test result” value in data set [14] was “negative”.
For the molecule `CN(C)CCCC1(c2cccs2)OCc2cc(C#N)ccc21.O=C(O)C(=O)O` (stereo not drawn) [Ex. 40, 1-{3-(dimethylamino)propyl}-1-(2-thienyl)-1,3-dihydro-5-isobenzofurancarbonitrile oxalate], the “Ratio: Number of responding animals/total animal number” value in data set [4] is on record as 3/9. Also, the “Latency: Time to display the ejaculatory response” value in data set [4] was 876 ± 110 s. For the same molecule, the Tmax in data set [1] is 15 min. The same molecule showed a half-life in data set [1] of 75.6 min. For the same molecule, the IC50 in data set [5] was 967 µM; in [6], over 1000 µM; in data set [7], 10.1 µM; in [8] it was 0.0125 µM; in [9] it was 124 µM; in data set [10] it was 69.1 µM. Besides, the IC50 stood at 0.531 µM in [11] and 8.7 µM in data set [12]. Also, the minimum lethal dose in data set [2] (Intravenously, female SD rats) came to 50; in data set [2] (Intravenously, male SD rats), 50; in data set [2] (Orally, female SD rats) it was 800; in data set [2] (Orally, male SD rats) it was 800. Also, the Ames test result in data set [13] was “negative”. Further, the “chromosome aberration test result” value in data set [14] is reported as “negative”.
